For data set [1], the species on record is Rattus norvegicus. Put plainly: Biodistribution of the [18F]-radiolabeled compound in rat cerebellum. Format: ADME, organism-based. The following applies: in vivo.
The species entered for data set [2] is Rattus norvegicus. Briefly: Biodistribution of the [18F]-radiolabeled compound in rat cortex. Format: ADME, organism-based. The following applies: in vivo.
Data set [3] is filed under the species Rattus norvegicus. Briefly: Biodistribution of the [18F]-radiolabeled compound in rat hippocampus. In kind it is ADME, organism-based. The conditions noted are these: in vivo.
Data set [4] is filed under the species Rattus norvegicus. Put plainly: Biodistribution of the [18F]-radiolabeled compound in rat hypothalamus. In kind it is ADME, organism-based. The conditions noted are these: in vivo.
Data set [5] concerns the target T1, 5-hydroxytryptamine receptor 1A (Homo sapiens, UniProt P08908).
T1 sequence (P08908 whole entry): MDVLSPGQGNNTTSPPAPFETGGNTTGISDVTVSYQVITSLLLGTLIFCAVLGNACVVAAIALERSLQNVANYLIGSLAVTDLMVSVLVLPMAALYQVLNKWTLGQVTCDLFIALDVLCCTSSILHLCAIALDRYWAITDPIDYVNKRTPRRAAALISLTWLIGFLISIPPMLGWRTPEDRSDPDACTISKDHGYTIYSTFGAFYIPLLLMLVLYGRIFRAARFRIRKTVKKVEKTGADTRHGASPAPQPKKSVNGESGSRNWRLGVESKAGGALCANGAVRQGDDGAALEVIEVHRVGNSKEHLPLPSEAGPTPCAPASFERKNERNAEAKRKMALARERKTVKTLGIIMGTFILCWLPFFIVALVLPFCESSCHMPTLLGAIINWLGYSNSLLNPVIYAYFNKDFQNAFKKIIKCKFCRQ
Briefly: In vitro inhibition of [3H]- 8-OH-DPAT binding to cloned cell line containing human 5-hydroxytryptamine 1A receptor by Panlabs assay.

Data set [6] has as its target T1, 5-hydroxytryptamine receptor 1A. Put plainly: In vitro inhibition of [3H]- 8-OH-DPAT binding to cloned cell line containing human 5-hydroxytryptamine 1A receptor.
Data set [7] has the same target. Put plainly: In vitro inhibition of [3H]- 8-OH-DPAT binding to cloned cell line containing human 5-hydroxytryptamine 1A receptor (Experiment 1).
For data set [8] the target is unchanged. Put plainly: In vitro inhibition of [3H]- 8-OH-DPAT binding to cloned cell line containing human 5-hydroxytryptamine 1A receptor (Experiment 2).

Regarding `COc1ccccc1N1CCN(CCN(C(=O)c2ccc(F)cc2)c2ccccn2)CC1`, the ID/g in the data set listed under Rattus norvegicus [1] was determined as 0.034%; in the data set listed under Rattus norvegicus [2], 0.085%; in the data set filed under Rattus norvegicus [3], 0.195%; in the data set listed under Rattus norvegicus [4] it was 0.066%.
A word on the Ki: it is the dissociation constant of the complex between target and ligand, obtained from inhibition or displacement. `COc1ccccc1N1CCN(CCN(C(=O)C2CCC(F)CC2)c2ccccn2)CC1` (stereo unspecified): the Ki was 247 pM in data set [5] and 515 pM in data set [6]. In addition, the ID/g in the data set filed under Rattus norvegicus [1] came out at 0.064%; in the data set listed under Rattus norvegicus [2], 0.823%; in the data set listed under Rattus norvegicus [3], 1.298%; in the data set filed under Rattus norvegicus [4] it was 0.499%.
Regarding `COc1ccccc1N1CCN(CCN(C(=O)c2ccc(F)c(C)c2)c2ccccn2)CC1`, the Ki in data set [7] was determined as 3960 pM; in data set [8], 1140 pM; in data set [5], 791 pM. In addition, the ID/g in the data set filed under Rattus norvegicus [1] was 0.02%; in the data set listed under Rattus norvegicus [2] it was 0.047%; in the data set listed under Rattus norvegicus [3] it was 0.118%.

The values are drawn from ChEMBL document CHEMBL1132717, “Development of fluorine-18-labeled 5-HT1A antagonists” (J Med Chem, 1999).
